Reference: US20060063828A1 (priority 2004, published 2006)

Key:
VCAM-1 = assay: In Vitro VCAM-1 Assay (ELISA of VCAM-1 on TNF-α stimulated endothelial cells); assay type: cell-based; conditions: Endothelial cell; primary human aortic (HAEC) or pulmonary (HPAEC) endothelial cells, TNF-α (1 ng/ml), approximately 16 hours
Procedure: Cell Culture and compound dosing: Cultured primary human aortic (HAEC) or pulmonary (HPAEC) endothelial cells were obtained from Clonetics, Inc., and were used below passage 9. Cells were seeded in 96 well plates such that they would reach 90-95% confluency by the following day. On the following day the cells were stimulated with TNF-α (1 ng/ml) in the presence or absence of compounds dissolved in DMSO such that the final concentration of DMSO is 0.25% or less. To establish a dose curve for each compound, four concentrations in 2- to 5-fold increments were used. Cells were exposed to TNF-α and compounds for approximately 16 hours. The next day the cells were examined under microscope to score for visual signs of toxicity or cell stress.
Following 16 hr exposure to TNF-α and compound the media was discarded and the cells were washed once with Hanks Balanced Salt Solution (HBSS)/Phosphate buffered saline (PBS) (1:1). Primary antibodies against VCAM-1 (0.25 μg/ml in HBSS/PBS+5% FBS) were added and incubated for 30-60 minutes at 37° C. Cells were washed with HBSS/PBS three times, and secondary antibody Horse Radish Peroxidase (HRP)-conjugated goat anti-mouse IgG (1:500 in HBSS/PBS+5% FBS) were added and incubated for 30 minutes at 37° C. Cells were washed with HBSS/PBS four time and TMB substrate were added and incubated at room temperature in the dark until there was adequate development of blue color. The length of time of incubation was typically 5-15 minutes. 2N sulfuric acid was added to stop the color development and the data was collected by reading the absorbance on a BioRad ELISA plate reader at OD 450 nm. The results are expressed as IC50 values (the concentration (micromolar) of compound required to inhibit 50% of the maximal response of the control sample stimulated by TNF-α only).

C=C(C(=O)c1c(Cl)cccc1Cl)c1cc(-c2cccs2)ccc1OC [Example 7, 1-(2,6-Dichloro-phenyl)-2-(2-methoxy-5-thien-2-yl-phenyl)-propenone]
IC50 (VCAM-1): < 1 µM

C=C(C(=O)c1c(OC)cccc1OC)c1cc(-c2cccs2)ccc1OC [Example 65, 1-(2,6-Dimethoxy-phenyl)-2-(2-methoxy-5-thien-2-yl-phenyl)-propenone]
IC50 (VCAM-1): < 1 µM
melting point: 162 to 163 °C

C=C(C(=O)c1ccc(C(=O)NCCN2CCOCC2)cc1)c1cc(OC)c(OC)c(-c2cccs2)c1 [Example 50, 4-[2-(3,4-Dimethoxy-5-thien-2-yl-phenyl)-acryloyl]-N-(2-morpholin-4-yl-ethyl)-benzamide]
IC50 (VCAM-1): < 3 µM
melting point: 84 to 87 °C

C=C(C(=O)c1c(OC)ccc(-c2cccs2)c1OC)c1ccc(OC(C)(C)C(=O)O)cc1 [Example 35, 2-{4-[1-(2,6-Dimethoxy-3-thien-2-yl-benzoyl)-vinyl]-phenoxy}-2-methyl-propionic acid]
IC50 (VCAM-1): < 3 µM
melting point: 138 °C (dec.)

C=C(C(=O)c1ccc(C(F)(F)F)cc1)c1cc(-c2cccs2)ccc1OC [Example 58, 2-(2-Methoxy-5-thien-2-yl-phenyl)-1-(4-trifluoromethyl-phenyl)-propenone]
IC50 (VCAM-1): < 3 µM
melting point: 131 to 133 °C

C=C(C(=O)c1cc(-c2cc3ccccc3s2)c(OC)cc1OC)c1ccc(C(=O)OC)cc1 [Example 12, 4-[1-(5-Benzo[b]thien-2-yl-2,4-dimethoxy-benzoyl)-vinyl]-benzoic acid methyl ester]
IC50 (VCAM-1): < 3 µM
melting point: 184 to 186 °C

C=C(C(=O)c1cccc(C(=O)O)c1)c1cc(-c2cccs2)ccc1OC [Example 56, 3-[2-(2-Methoxy-5-thien-2-yl-phenyl)-acryloyl]-benzoic acid]
IC50 (VCAM-1): < 3 µM
melting point: 186 to 188 °C

C=C(C(=O)c1c(OC)ccc(-c2cccs2)c1OC)c1cc(C(C)(C)C)c(O)c(C(C)(C)C)c1 [Example 34, 2-(3,5-Di-tert-butyl-4-hydroxy-phenyl)-1-(2,6-dimethoxy-3-thien-2-yl-phenyl)-propenone]
IC50 (VCAM-1): > 10 µM
melting point: 130 to 132.5 °C

C=C(C(=O)c1ccc(C(=O)O)cc1)c1cc(-c2cc3ccccc3s2)ccc1OC [Example 5, 4-[2-(5-Benzo[b]thien-2-yl-2-methoxy-phenyl)-acryloyl]-benzoic acid]
IC50 (VCAM-1): < 1 µM
melting point: 240 to 242 °C (dec.)

C=C(C(=O)c1ccc(C(=O)OC)cc1)c1cc(OC)c(OC)c(-c2cccs2)c1 [Example 48, 4-[2-(3,4-Dimethoxy-5-thien-2-yl-phenyl)-acryloyl]-benzoic acid methyl ester]
IC50 (VCAM-1): < 10 µM
melting point: 102 to 103 °C

C=C(C(=O)c1ccc(OC)c(-c2cccs2)c1)c1ccc(C(=O)O)cc1 [Example 15, 4-[1-(4-Methoxy-3-thien-2-yl-benzoyl)-vinyl]-benzoic acid]
IC50 (VCAM-1): < 3 µM
melting point: 204 to 205 °C

C=C(C(=O)c1c(C)cccc1C)c1ccccc1-c1cccnc1OC [Example 39, 1-(2,6-Dimethyl-phenyl)-2-[2-(2-methoxy-pyridin-3-yl)-phenyl]-propenone]
IC50 (VCAM-1): < 6 µM

C=C(C(=O)c1c(OC)ccc(-c2cccs2)c1OC)c1cccc(OC(C)(C)C(=O)O)c1 [Example 44, 2-{3-[1-(2,6-Dimethoxy-3-thien-2-yl-benzoyl)-vinyl]-phenoxy}-2-methyl-propionic acid]
IC50 (VCAM-1): < 3 µM
melting point: 79 to 94 °C

C=C(C(=O)c1c(OC)ccc(-c2cccs2)c1OC)c1ccc([N+](=O)[O-])cc1 [Example 41, 1-(2,6-Dimethoxy-3-thien-2-yl-phenyl)-2-(4-nitrophenyl)-propenone]
IC50 (VCAM-1): < 1 µM
melting point: 114 to 118 °C

C=C(C(=O)c1ccc(C(=O)O)cc1)c1c(OC)cc(-c2cccs2)cc1OC [Example 6]
IC50 (VCAM-1): < 1 µM
melting point: > 250 °C

C=C(C(=O)c1ccc(C(=O)O)cc1)c1cc(-c2cnc3ccccc3c2)ccc1OC [Example 2, 4-[2-(2-Methoxy-5-quinolin-3-yl-phenyl)-acryloyl]-benzoic acid]
IC50 (VCAM-1): < 1 µM
melting point: 232 °C (dec.)

C=C(C(=O)c1c(C)cccc1C)c1cc(-c2cccs2)ccc1OC [Example 29, 1-(2,6-Dimethyl-phenyl)-2-(2-methoxy-5-thien-2-yl-phenyl)-propenone]
IC50 (VCAM-1): < 1 µM

C=C(C(=O)c1c(OC)ccc(-c2cccs2)c1OC)c1ccc(S(=O)(=O)N(C)CC(=O)O)cc1 [Example 63, ({4-[1-(2,6-Dimethoxy-3-thien-2-yl-benzoyl)-vinyl]-benzenesulfonyl}-methyl-amino)-acetic acid]
IC50 (VCAM-1): < 10 µM
melting point: 164 to 166 °C

C=C(C(=O)c1ccc(NS(C)(=O)=O)cc1)c1cc(-c2cccs2)ccc1OC [Example 19, N-{4-[2-(2-Methoxy-5-thien-2-yl-phenyl)-acryloyl]-phenyl}-methane-sulfonamide]
IC50 (VCAM-1): < 1 µM
melting point: 197 to 198 °C

C=C(C(=O)c1ccc(C(=O)O)cc1)c1cc(-c2cccs2)ccc1OCC(=O)N1CCOCC1 [Example 60]
IC50 (VCAM-1): > 10 µM
melting point: 206 to 207 °C

C=C(C(=O)c1cc(-c2cccs2)ccc1OC)c1ccc(C#N)cc1 [Example 53, 4-[1-(2-Methoxy-5-thien-2-yl-benzoyl)-vinyl]-benzonitrile]
IC50 (VCAM-1): < 3 µM
melting point: 86 to 88 °C

C=C(C(=O)c1cc(-c2cccs2)ccc1OC)c1ccc([N+](=O)[O-])cc1 [Example 52, 1-(2-Methoxy-5-thien-2-yl-phenyl)-2-(4-nitro-phenyl)-propenone]
IC50 (VCAM-1): < 3 µM

C=C(C(=O)c1ccc(C(=O)OC)cc1)c1cc(-c2cccs2)ccc1OC [Example 9, 4-[2-(2-Methoxy-5-thien-2-yl-phenyl)-acryloyl]-benzoic acid methyl ester]
IC50 (VCAM-1): < 1 µM
melting point: 126 to 128 °C

C=C(C(=O)c1c(C)cccc1Cl)c1ccc(C(=O)O)cc1-c1cccs1 [Example 32, 4-[1-(2-Chloro-6-methyl-benzoyl)-vinyl]-3-thien-2-yl-benzoic acid]
IC50 (VCAM-1): < 1 µM
melting point: 88 °C (dec.)

C=C(C(=O)c1ccc(NS(=O)(=O)c2c(C)noc2C)cc1)c1cc(-c2cccs2)ccc1OC [Example 26, 3,5-Dimethyl-isoxazole-4-sulfonic acid {4-[2-(2-methoxy-5-thien-2-yl-phenyl)-acryloyl]-phenyl}-amide]
IC50 (VCAM-1): < 3 µM
melting point: 176 to 179 °C

C=C(C(=O)c1ccc(N2CCCC2)cc1)c1cc(-c2cccs2)ccc1OC [Example 14, 2-(2-Methoxy-5-thien-2-yl-phenyl)-1-(4-pyrrolidin-1-yl-phenyl)-propenone]
IC50 (VCAM-1): < 3 µM
melting point: 187 to 190 °C

C=C(C(=O)c1ccc(C(=O)O)cc1)c1cc(-c2cccn2C(=O)OC(C)(C)C)ccc1OC [Example 3, 2-{3-[1-(4-Carboxy-benzoyl)-vinyl]-4-methoxy-phenyl}-pyrrole-1-carboxylic acid tert-butyl ester]
IC50 (VCAM-1): < 3 µM
melting point: 90 °C (dec.)

C=C(C(=O)c1ccc(F)cc1)c1cc(-c2cccs2)ccc1OC [Example 13, 1-(4-Fluoro-phenyl)-2-(2-methoxy-5-thien-2-yl-phenyl)-propenone]
IC50 (VCAM-1): < 3 µM
melting point: 116 to 121 °C

C=C(C(=O)c1cc(-c2cc3ccccc3s2)c(OC)cc1OC)c1ccc(OC)cc1 [Example 46, 1-(5-Benzo[b]thien-2-yl-2,4-dimethoxy-phenyl)-2-(4-methoxy-phenyl)-propenone]
IC50 (VCAM-1): < 3 µM
melting point: 166 to 168 °C

C=C(C(=O)c1cc(-c2cccs2)ccc1OC)c1ccc(C(=O)O)cc1 [Example 54, 4-[1-(2-Methoxy-5-thien-2-yl-benzoyl)-vinyl]-benzoic acid]
IC50 (VCAM-1): < 1 µM

C=C(C(=O)c1c(C)cccc1C)c1ccccc1-c1cccs1 [Example 38, 1-(2,6-Dimethyl-phenyl)-2-(2-thien-2-yl-phenyl)-propenone]
IC50 (VCAM-1): < 10 µM

C=C(C(=O)c1ccc(C(=O)O)cc1)c1cc(-c2cccs2)ccc1OC(C)C [Example 59, 4-[2-(2-Isopropoxy-5-thien-2-yl-phenyl)-acryloyl]-benzoic acid]
IC50 (VCAM-1): < 1 µM

C=C(C(=O)c1ccc(O)cc1)c1cc(-c2cccs2)ccc1OC [Example 17, 1-(4-Hydroxy-phenyl)-2-(2-methoxy-5-thien-2-yl-phenyl)-propenone]
IC50 (VCAM-1): < 1 µM

C=C(C(=O)c1ccc(N(C)S(C)(=O)=O)cc1)c1cc(-c2cccs2)ccc1OC [Example 20, N-{4-[2-(2-Methoxy-5-thien-2-yl-phenyl)-acryloyl]-phenyl}-N-methyl-methanesulfonamide]
IC50 (VCAM-1): < 1 µM

C=C(C(=O)c1c(OC)ccc(-c2cccs2)c1OC)c1ccccc1OC [Example 31, 1-(2,6-Dimethoxy-3-thien-2-yl-phenyl)-2-(2-methoxy-phenyl)-propenone]
IC50 (VCAM-1): < 1 µM
